Read-outs that look alike come from different tables or passages of the source.
Experiments:
chromaffin cells = test system: chromaffin cells
Method: (§1) Plasma and in vitro catecholamine secretion measurements: Plasma Epi and NE levels were determined by ELISA, performed on rat and mouse plasma samples with the BI-CAT EIA kit from ALPCO Diagnostics (Windham, N.H.). In vitro Epi and NE secretion in the supernatant of cultured chromaffin cells was measured by use of the same ELISA kit essentially as described previously by Wilson & Kirschner, 3J. Neurosci. 1971-78 (1983). In vitro catecholamine (CA) secretion measurements. Briefly, 48 hrs post-isolation, chromaffin cells were placed in a balanced salts buffer and stimulated with 20 μM nicotine for 30 min, following pre-treatment with 10 μM UK14304 (Sigma-Aldrich) or vehicle for 30 min. At the end of nicotine treatment, the supernatant was collected for determination of its CA content. Adenoviral-transfected cells were infected 48 hrs post-isolation and cells were subjected to the various treatments 24 hrs after transfection (72 hrs post-isolation). In all experiments, the supernatants used for CA measurements were collected from cultures of equal numbers of cells as determined by cell counting and post-experiment protein determination in harvested cells.
Following this period, in vitro CA secretion assays were performed using nicotine to activate nicotinic cholinergic receptors (the physiological stimulus for CA secretion from these cells) and the α2AR agonist UK14304 to activate these negative feedback receptors.

[1] = test system: CSQ/Tg mouse-derived chromaffin cells; assay: In vitro catecholamine secretion from chromaffin cells of CSQ/Tg and NLC mice (nicotine stimulus, UK14304 pre-treatment); type: cell-based; details: for Inhibition of Epi and NE secretion in response to nicotine: 10 μM UK14304 pre-treatment; for EC50: Mus musculus, n=6
From the text: (§2) Experimental Procedures: Adrenal chromaffin cell isolation and culture: The animal models of heart failure: mice with myocardial-targeted overexpression of calsequestrin (CSQ/Tg mice); male Sprague-Dawley rats (450-500 g; Harlan) ten weeks post-cryo-myocardial infarction (cryo-MI) (HF rats); as well as CSQ/βARKct mice, were previously established and characterized. Harding et al., 98 P.N.A.S. USA, 5809-14 (2001); Most et al., 114 J. Clin. Invest. 1550-63 (2004). Nontransgenic littermate mice were used as healthy controls for the mouse heart failure model. Chromaffin cells were isolated from adrenal glands excised from these animals and cultured as described previously in Brede et al., 2003. […] Cells from separate isolations were used in each experiment.
as §1

HF rat chromaffin cells = assay: In vitro catecholamine secretion from chromaffin cells of HF and sham rats (nicotine stimulus, UK14304 pre-treatment); type: cell-based; details: for EC50: Rattus norvegicus
From the text: as §2, §1

[2] = test system: chromaffin cells isolated from HF or sham-operated rats; details: 10 μM UK14304 pretreatment
Method: Calibration and assessment of intracellular Ca^2+ transients in chromaffin cells in response to K^+-induced depolarization were performed essentially as described. Brede, 2003; Zhou & Neher, 469 J. Physiol. 245-73 (1993). Changes in intracellular Ca^2+ were monitored fluorimetrically using the Ca^2+-sensitive probe Fura 2 (1 μM). The recording system included a Zeiss, Axiovert S170 inverted microscope fitted with epifluorescence (monochromator TILL Polychrome II, Germany). Cells were alternatively illuminated at 340 nm and 380 nm at a frequency of 140 Hz. Emission for each excitation wavelength was filtered at 510 nm and digitized using interface (EPC9, HEKA, Germany). […] Chromaffin cells isolated from HF or sham-operated rats were exposed to 10 μM UK14304 or vehicle for 30 min in culture medium containing a fixed Ca^2+ concentration of 2.5 mM, and then 150 mM KCl was added to induce depolarization. Only round-shaped, healthy, and attached chromaffin cells with a resting 340/380 ratio lower than 1 were selected for measurement.

[3] = test system: rat primary chromaffin cells; assay: βarr1 membrane recruitment in rat primary chromaffin cells; type: cell-based; details: cells infected with GFP, 10 μM UK14304 for 8 min
Method: β-arrestin membrane recruitment: βarr1 recruitment to rat primary chromaffin cell membranes or whole adrenal gland-derived plasma membranes was measured by western blotting in membrane preparations, essentially as described previously in Perry et al., 198 Science 834-36 (2002). Cultured chromaffin cells, isolated from rat adrenal glands, were transfected with the indicated recombinant adenoviruses and 24 hrs post-infection they were treated with vehicle or 10 μM UK14304 for 8 min. The cells were then harvested and plasma membranes prepared by hypotonic lysis with 5 mM TrisCl, 5 mM EDTA, pH 7.4, and subsequent ultracentrifugation at 47.000×g. The membranes were resuspended in RIPA buffer, containing Triton 0.5% and protease inhibitors, and then fractions of membrane lysates containing 50 μg of protein were loaded for SDS-PAGE, and subsequently western blotted with an antibody against rat βarr1 and −2 (A1CT40, a generous gift from Dr. R. J. Lefkowitz, Duke Univ. Medical Center, Durham, N.C.). Plasma membrane preparations from whole adrenal glands excised from in vivo infected rats were obtained by the same procedure. Blotting for actin in the same membrane lysates was also performed as loading control. βarr1 membrane recruitment was quantified as the densitometric ratio of βarr1 and actin bands detected in each sample.

α2AR [4] = details: HF animal models and human heart failure patients; cited from earlier work
α2AR [5] = details: MOXSE and MOXCON trials; cited from earlier work
α2AR [6] = assay: Moxonidine treatment of HF rats, plasma catecholamine levels; type: in vivo, rat; details: 7d of moxonidine 1 mg/kg/d intraperitoneally
Method: In vivo adrenal gene delivery: All animal procedures and experiments were performed in accordance with the guidelines of the Institutional Animal Care and Use Committee of Thomas Jefferson University. For adrenal-specific in vivo gene delivery in HF rats, adenovirus was delivered directly to the adrenal gland using a surgical technique. Rats with chronic heart failure ten weeks after myocardial infarction were directly injected with virus into both of their adrenal glands, immediately after a transversal cut of the median abdomen was made and ventral visceral organs temporarily placed on the side so as to expose the retroperitoneal region. […] HF rats were treated with either AdβARKct or AdGFP as a control. […] For moxonidine treatment of HF rats, systemic administration of 1.0 mg/kg/d of moxonidine (delivered via a daily intraperitoneal injection) was initiated at the time of in vivo adrenal gene delivery and continued for seven days, at which time plasma was taken for determination of circulating catecholamine levels (see below).
as §1, with “Adenoviral-transfected cells were infected 48 hrs post-isolation and cells were subjected to the various treatments 24 hrs after transfection (72 hrs post-isolation).” left out

Compound: Brc1c(NC2=NCCN2)ccc2nccnc12 [UK14304]
- Ability of UK14304 to inhibit CA secretion (chromaffin cells; cells from AdβARKct-treated rats, 10 μM UK14304): normal and similar to control cells
- Effect of UK14304 on CA secretion in response to nicotine (chromaffin cells; chromaffin cells from AdGRK2-treated rats, 10 μM UK14304): lost
- Effect of UK14304 on CA secretion in response to nicotine (chromaffin cells; chromaffin cells from control AdGFP-treated rats, 10 μM UK14304): abolishes CA secretion
- Inhibition of Epi and NE secretion in response to nicotine ([1]; CSQ/Tg mouse-derived chromaffin cells): completely fails to inhibit
- EC50 ([1]; CSQ/Tg mouse-derived chromaffin cells, AdGFP cells, mean±s.e.m., read-out: EC50 of UK14304-mediated inhibition of Epi secretion): 5500 ± 1300 nM
- EC50 ([1]; CSQ/Tg mouse-derived chromaffin cells, AdGFP cells, read-out: EC50 of UK14304-mediated inhibition of NEpi secretion): 8000 ± 2630 nM
- EC50 ([1]; CSQ/Tg mouse-derived chromaffin cells, AdβARKct cells, read-out: EC50 of UK14304-mediated inhibition of Epi secretion): 200 ± 1.5 nM
- EC50 ([1]; CSQ/Tg mouse-derived chromaffin cells, AdβARKct cells, read-out: EC50 of UK14304-mediated inhibition of NEpi secretion): 50 ± 1.4 nM
- Inhibition of Epi and NE secretion in response to nicotine ([1]; control (NLC) cells): attenuates catecholamine release
- Catecholamine secretion, UK14304 pre-treatment alone ([1]; without nicotine): no effect
- Inhibition of secretion of both catecholamines in response to nicotine (HF rat chromaffin cells; 10 μM UK14304 pre-treatment): fails to inhibit secretion
- EC50 (HF rat chromaffin cells; AdGFP cells, n=6, read-out: EC50 of UK14304-mediated inhibition of Epi secretion): 6400 ± 2500 nM
- EC50 (HF rat chromaffin cells; AdGFP cells, n=6, read-out: EC50 of UK14304-mediated inhibition of NEpi secretion): 680 ± 25.1 nM
- EC50 (HF rat chromaffin cells; AdβARKct cells, n=6, read-out: EC50 of UK14304-mediated inhibition of Epi secretion): 100 ± 5.2 nM
- EC50 (HF rat chromaffin cells; AdβARKct cells, n=6, read-out: EC50 of UK14304-mediated inhibition of NEpi secretion): 110 ± 1.2 nM
- Depolarization-induced Ca2+ entry ([2]; HF chromaffin cells): fails to significantly alter
- Depolarization-induced Ca2+ entry ([2]; control (sham) cells): significantly inhibited
- βarr1 recruitment to chromaffin cell membranes in response to α2AR stimulation [3]: large βarr1 recruitment

Compound: Clc1cccc(Cl)c1N=C1NCCN1 [clonidine]
- Sympatholytic response to clonidine administration (α2AR [4]): diminished sympatholytic responses

Compound: COc1nc(C)nc(Cl)c1N=C1NCCN1 [moxonidine]
- Reason for early termination of the trials (α2AR [5]): excessive adverse effects and fatalities
- SNS activity in heart failure patients (α2AR [5]): significant reduction of SNS activity
- Circulating Epi levels (α2AR [6]; adrenal AdGFP-treated HF rats): virtually no effect
- Circulating NEpi levels (α2AR [6]; adrenal AdGFP-treated HF rats): lowered
- NE and Epi plasma levels (α2AR [6]; adrenal AdβARKct-treated HF rats): further significantly reduced

Compound: CN1CCCC1c1cccnc1 (stereo not shown) [nicotine]
- Nicotine-stimulated Epi and NE secretion (chromaffin cells; chromaffin cells from AdGFP-, AdGRK2- and AdβARKct-treated rats, 20 μM nicotine): to an equal extent

Source: patent publication US20100048479A1, “ADRENAL GRK2 ACTIVITY AS A THERAPEUTIC TARGET FOR HEART FAILURE” (priority 2006, published 2010)
